One data set has as its system K562/4. Nature of the data set: Antiproliferative activity against human K562/4 cells incubated for 72 hrs by MTT assay. The data set is classed as functional, cell-based. To be noted: K562/4, 72 h. Background: Tetrazolium assays rely on reduction of a dye to a coloured formazan, in cell work by metabolically active cells.
Data set [1] can be described thus: Selectivity index, ratio of IC50 for human hFB-hTERT6 cells to IC50 for human K562 cells. The format is toxicity. To be noted: hFB-hTERT6 cells and K562 cells, read-out: Ratio IC50.
A short description of data set [2]: Antiproliferative activity against hFB-hTERT6 cells incubated for 72 hrs by MTT assay. The data set is classed as toxicity, cell-based. To be noted: human.
The next data set has as its system A549. The experiment in a line: Antiproliferative activity against human A549 cells incubated for 72 hrs by MTT assay. The format is functional, cell-based. As to conditions: A549, 72 h.
Data set [3] is described as follows: Resistance index, ratio of IC50 for human K562/4 cells to IC50 for human K562 cells. The data set is classed as functional.
A further data set relates to K562. The experiment in a line: Antiproliferative activity against human K562 cells incubated for 72 hrs by MTT assay. The data set is classed as functional, cell-based. As to conditions: K562, 72 h.
Data set [4] in a line: Drug uptake in human K562 cells at 2 uM incubated for 3 to 120 hrs by flow cytometry. The data set is classed as ADME, cell-based. As to conditions: k562, 2 µM, time 3-120 hrs. On the technique in general: In flow cytometry, cells or beads pass a laser one at a time.
Data set [5] in a line: Drug uptake in lysosome of human HCT-116 cells at 3 uM incubated for 1 hr by LysoTracker Deep Red dye based confocal microscopy. The data set is classed as ADME, subcellular. As to conditions: hct-116, 1 h.
A short description of data set [6]: Drug uptake in human HCT-116 cells at 3 uM incubated for 10 mins by confocal microscopy. The data set is classed as ADME, cell-based. To be noted: hct-116, 10 min.
A short description of data set [7]: Drug uptake in cytoplasmic membrane of human HCT-116 cells at 3 uM incubated for 1 hr by confocal microscopy. As to conditions: hct-116, 1 h. The data set is classed as ADME, cell membranes, Cytoplasm membrane.
Data set [8] deals with T1, DNA topoisomerase 1 (Homo sapiens) (UniProt P11387).
T1 sequence (whole entry): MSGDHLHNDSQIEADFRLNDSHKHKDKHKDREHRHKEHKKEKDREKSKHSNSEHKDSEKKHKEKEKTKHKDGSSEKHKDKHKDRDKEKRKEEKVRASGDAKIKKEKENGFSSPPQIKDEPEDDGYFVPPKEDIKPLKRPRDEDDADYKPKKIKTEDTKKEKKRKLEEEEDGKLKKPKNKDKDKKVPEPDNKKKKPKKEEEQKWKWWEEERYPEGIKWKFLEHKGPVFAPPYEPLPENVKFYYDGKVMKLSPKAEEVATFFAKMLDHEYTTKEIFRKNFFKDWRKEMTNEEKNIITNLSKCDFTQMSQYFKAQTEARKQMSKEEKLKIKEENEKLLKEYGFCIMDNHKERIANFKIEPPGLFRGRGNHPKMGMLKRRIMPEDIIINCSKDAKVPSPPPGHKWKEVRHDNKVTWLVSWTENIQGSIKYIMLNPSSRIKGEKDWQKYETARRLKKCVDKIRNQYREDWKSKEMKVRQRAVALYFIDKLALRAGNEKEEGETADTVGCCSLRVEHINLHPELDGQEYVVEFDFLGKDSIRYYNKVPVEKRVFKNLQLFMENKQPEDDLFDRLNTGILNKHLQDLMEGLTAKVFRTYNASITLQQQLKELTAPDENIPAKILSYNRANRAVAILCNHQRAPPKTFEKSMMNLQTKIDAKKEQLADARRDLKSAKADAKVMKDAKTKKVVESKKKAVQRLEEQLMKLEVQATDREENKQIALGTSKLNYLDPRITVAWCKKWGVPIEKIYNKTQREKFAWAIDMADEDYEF
The experiment in a line: Inhibition of Top1 (unknown origin)-mediated unwinding of supercoiled DNA at 5 uM incubated for 30 mins by electrophoretic analysis.

The nature of data set [9]: Drug uptake in nuclear membrane of human HCT-116 cells at 3 uM incubated for 1 hr by confocal microscopy. The format is ADME, cell membranes. As to conditions: hct-116, 1 h.
In another data set the test system is DNA. Nature of the data set: Binding affinity to pBR322 plasmid DNA (unknown origin) assessed as effect on electrophoretic mobility of DNA at 1 to 40 uM incubated for 30 mins. The format is nucleic-acid assay. To be noted: Escherichia coli, dose 1-40 µM.
Data set [10] can be described thus: Drug uptake in P-gp+ human […] cells at 3 uM incubated for 10 mins by confocal microscopy. The data set is classed as ADME, cell-based. To be noted: k562/4, 10 min.

The source made the active and inactive calls. The rule behind the calls is not given here.

For `CS(=O)(=O)O.O=C(N[C@@H]1CCNC1)c1cc2c(O)c3c(c(O)c2[nH]1)C(=O)c1ccccc1C3=O`, the IC50 in the data set on K562/4 was 47 µM; in the data set with A549, 4 µM; in the data set on K562 it was 2.3 µM. Further, in data set [1], the selectivity ratio is 2.2. Further, the IC50 at 72 h in data set [2] turned out to be 5 µM. In data set [3], the “Ratio IC50” value was found to be 20.4.
Take `N[C@H]1CCN(C(=O)c2cc3c(O)c4c(c(O)c3o2)C(=O)c2ccccc2C4=O)C1`: the IC50 with K562/4 was 1.7 µM; with A549, over 50 µM; in the data set on K562 it was 1.6 µM. For the same compound, the selectivity ratio in [1] is over 31.2. Besides, the IC50 at 72 h in [2] is over 50 µM. For the same compound, the “Ratio IC50” value in data set [3] turned out to be 1.1.
In the case of `CS(=O)(=O)O.NC1CCCN(C(=O)c2cc3c(O)c4c(c(O)c3[nH]2)C(=O)c2ccccc2C4=O)C1` (racemic), the results for the half-maximal inhibitory concentration (IC50) with K562/4, in the data set with A549 and in the data set with K562 were 1 µM, 1.2 µM and 1.2 µM, respectively. Moreover, the selectivity ratio in data set [1] was 1.5. Also, in [2], the IC50 at 72 h stood at 1.8 µM. Further, in data set [3], the “Ratio IC50” value was found to be 0.8.
Regarding `CS(=O)(=O)O.O=C1c2ccccc2C(=O)c2c1c(O)c1cc(C(=O)N3CCNCC3)[nH]c1c2O`, the results for the IC50 in the data set with K562/4, with A549 and in the data set on K562 were 1.2 µM, 4.4 µM and 1 µM, respectively. Besides, the selectivity ratio in data set [1] came out at 3.3. Also, the IC50 at 72 h in data set [2] was determined as 3.3 µM. Besides, the “Ratio IC50” value in data set [3] amounted to 1.2.
Consider `CS(=O)(=O)O.O=C(NC1CCCNC1)c1cc2c(O)c3c(c(O)c2[nH]1)C(=O)c1ccccc1C3=O` (racemic), for which the IC50 turned out to be 2.3 µM in the data set on K562/4, 9 µM in the data set on A549 and 1.2 µM in the data set with K562. In addition, the selectivity ratio in data set [1] was found to be 3.7. In data set [2], this compound showed an IC50 at 72 h of 4.4 µM. In addition, the “Ratio IC50” value in data set [3] is 1.9.
Turning to `Cc1[nH]c2c(O)c3c(c(O)c2c1C(=O)N1CC[C@H](N)C1)C(=O)c1ccccc1C3=O`, the IC50 in the data set with K562/4 is 50 µM; in the data set on A549 it was 1.9 µM; in the data set on K562 it was 0.4 µM. The selectivity ratio in [1] was determined as 12.5. For the same compound, the IC50 at 72 h in data set [2] came out at 5 µM. In addition, the Drug uptake entry in data set [4] is given as “Not_active”; in data set [5], “Active”; in data set [6], “Active”; in data set [7], “Not_active”; in data set [9], “Not_active”; in data set [10], “Active”. Further, the “Ratio IC50” value in data set [3] is listed as 125. The inhibition entry in [8] is “Active; Slightly Less Potent”. In the data set with DNA, the result was inactive.
With `N[C@H]1CCN(C(=O)c2cc3c(O)c4c(c(O)c3s2)C(=O)c2ccccc2C4=O)C1`, the IC50 in the data set on K562/4 is 0.4 µM; in the data set on A549, 2 µM. In addition, in [1], the selectivity ratio was found to be 6. The compound further returned an IC50 at 72 h in data set [2] of 1.8 µM. Besides, in [3], the “Ratio IC50” value is 1.2.
As for `CS(=O)(=O)O.O=C(N[C@H]1CCNC1)c1cc2c(O)c3c(c(O)c2[nH]1)C(=O)c1ccccc1C3=O`, the IC50 with K562/4 worked out at 43 µM; in the data set with A549 it was 4.3 µM; in the data set with K562 it was 3.5 µM. In addition, the selectivity ratio in [1] is 1.6. The compound also returned an IC50 at 72 h in data set [2] of 5.5 µM. Besides, the “Ratio IC50” value in [3] came to 12.3.
On to `CS(=O)(=O)O.O=C(NC1CCNCC1)c1cc2c(O)c3c(c(O)c2[nH]1)C(=O)c1ccccc1C3=O`, for which the figures for the IC50 in the data set on K562/4, in the data set with A549 and in the data set on K562 were 41 µM, 4.2 µM and 1.8 µM, respectively. In addition, the selectivity ratio in data set [1] stood at 1.4. In addition, the IC50 at 72 h in data set [2] was found to be 2.6 µM. Besides, in data set [3], the “Ratio IC50” value worked out at 22.8.
Take `CS(=O)(=O)O.N[C@@H]1CCN(C(=O)c2cc3c(O)c4c(c(O)c3[nH]2)C(=O)c2ccccc2C4=O)C1`: the results for the IC50 in the data set with K562/4, in the data set with A549 and in the data set on K562 were 1.2 µM, 4.3 µM and 1.3 µM, respectively. Besides, in [1], the selectivity ratio is 3.3. The compound also registered an IC50 at 72 h in data set [2] of 4.3 µM. Further, in data set [3], the “Ratio IC50” value worked out at 0.9.
The compound `COc1cccc2c1C(=O)c1c(O)c3c(c(O)c1C2=O)C[C@@](O)(C(=O)CO)C[C@@H]3O[C@H]1C[C@H](N)[C@H](O)[C@H](C)O1` [DOXORUBICIN] returned an IC50 in the data set with K562/4 of 14 µM.

By IC50 is commonly meant the midpoint of a concentration-inhibition curve. A higher IC50 goes with weaker potency.

The values above are taken from ChEMBL document CHEMBL6087404, “Naphthoindole-2-carboxamides as a lipophilic chemotype of hetarene-anthraquinones potent against P-gp resistant tumor cells” (Eur J Med Chem, 2025).
